{"source": "paper doi:10.1101/2025.08.21.671483v1", "about": "“In vitro and in vivo activity profiles of broad-spectrum bacterial ATP synthase inhibitors” (biorxiv, 2025)", "assay_in_all_cases": "microbe, parasite or virus in culture", "key": {"[1]": {"tested_on": "T1, S. aureus ATCC 29740 (Newbould)", "T1 construct": "ATCC 29740 (Newbould)", "set-up": "species or system bacteria; CLSI broth microdilution MIC, no visible growth", "conditions": "Staphylococcus aureus, ATCC29740, read-out: TO MIC"}, "[2]": {"tested_on": "T2, E. coli ATCC 25922", "T2 construct": "ATCC 25922", "set-up": "species or system bacteria; CLSI broth microdilution MIC, no visible growth", "conditions": "Escherichia coli, ATCC25922, read-out: TO MIC"}, "[3]": {"tested_on": "S. aureus ATCC 29740hemB", "conditions": "Staphylococcus aureus, ATCC29740HEMB, read-out: MIC"}, "[4]": {"tested_on": "T3, E. coli MC4100 acrAB", "T3 construct": "MC4100 acrAB efflux-deficient", "conditions": "Escherichia coli, MC4100ACRAB, read-out: MIC"}, "[5]": {"tested_on": "T4, E. coli MC4100 WT", "T4 construct": "MC4100 (ATCC 35695)", "set-up": "species or system bacteria; CLSI broth microdilution MIC, no visible growth", "conditions": "Escherichia coli, MC4100WT, read-out: TO MIC"}, "[6]": {"tested_on": "T5, E. coli MC4100 lptD4213", "T5 construct": "MC4100 lptD4213 membrane-compromised", "conditions": "Escherichia coli, MC4100LPTD4213, read-out: MIC"}, "[7]": {"tested_on": "T6, Escherichia coli ATCC BAA2471", "T6 construct": "ATCC BAA-2471", "set-up": "species or system bacteria; CLSI broth microdilution MIC, no visible growth"}, "[8]": {"tested_on": "T7, Escherichia coli ec310", "T7 construct": "ec310", "set-up": "species or system bacteria; CLSI broth microdilution MIC, no visible growth"}, "[9]": {"tested_on": "T8, Escherichia coli 70122 CW-2007", "T8 construct": "70122 CW-2007", "set-up": "species or system bacteria; CLSI broth microdilution MIC, no visible growth"}, "[10]": {"tested_on": "T9, Escherichia coli 95882 CW-2011", "T9 construct": "95882 CW-2011", "set-up": "species or system bacteria; CLSI broth microdilution MIC, no visible growth"}, "[11]": {"tested_on": "T10, Escherichia coli ec305", "T10 construct": "ec305", "set-up": "species or system bacteria; CLSI broth microdilution MIC, no visible growth"}, "[12]": {"tested_on": "T11, Escherichia coli ec309", "T11 construct": "ec309", "set-up": "species or system bacteria; CLSI broth microdilution MIC, no visible growth"}, "[13]": {"tested_on": "T12, Escherichia coli ec302", "T12 construct": "ec302", "set-up": "species or system bacteria; CLSI broth microdilution MIC, no visible growth"}, "[14]": {"tested_on": "T13, Escherichia coli ATCC 35218", "T13 construct": "ATCC 35218", "set-up": "species or system bacteria; CLSI broth microdilution MIC, no visible growth"}, "[15]": {"tested_on": "T14, Escherichia coli ec308", "T14 construct": "ec308", "set-up": "species or system bacteria; CLSI broth microdilution MIC, no visible growth"}, "[16]": {"tested_on": "T2, E. coli ATCC 25922", "set-up": "species or system bacteria; CLSI broth microdilution MIC, no visible growth", "conditions": "Escherichia coli"}}, "note": "Where two headings read alike, the source gives them in different places. Where a SMILES comes first, the peptide text is derived from it. Bridges are numbered along the chain shown (N, C = ends). [ ]: non-standard residue; d: D form. The star is where a group is joined. Heptanoyl(5-Me) = CCC(C)CCCC(=O)*; Dab = NCC[C@H](N)C(=O)O", "data": [{"smiles": "C[C@H]1CC[C@]2(NC1)O[C@H]1C[C@H]3[C@@H]4CC[C@H]5C[C@@H](O)CC[C@]5(C)[C@H]4CC[C@]3(C)[C@H]1[C@@H]2C", "note": "[TO, tomatidine]", "values": [{"measurement": "MIC", "setting": "[1]", "result": "> 128", "unit": "µg/mL"}, {"measurement": "MIC", "setting": "[2]", "result": "> 128", "unit": "µg/mL"}, {"measurement": "MIC", "setting": "[3]", "result": "≤ 0.25", "unit": "µg/mL"}, {"measurement": "MIC", "setting": "[4]", "result": "> 128", "unit": "µg/mL"}, {"measurement": "MIC", "setting": "[5]", "result": "> 128", "unit": "µg/mL"}, {"measurement": "MIC", "setting": "[6]", "result": "> 128", "unit": "µg/mL"}]}, {"smiles": "CCC(C)CCCC(=O)N[C@@H](CCN)C(=O)N[C@H](C(=O)N[C@@H](CCN)C(=O)N[C@H]1CCNC(=O)[C@H]([C@@H](C)O)NC(=O)[C@H](CCN)NC(=O)[C@H](CCN)NC(=O)[C@H](CC(C)C)NC(=O)[C@@H](CC(C)C)NC(=O)[C@H](CCN)NC1=O)[C@@H](C)O", "note": "(stereo partly drawn) [CST, colistin] ({Heptanoyl(5-Me)}-[Dab]T[Dab][Dab][Dab][dL]L[Dab][Dab]T; lactam 4-C)", "values": [{"measurement": "MIC", "setting": "[7]; ATCCBAA2471, read-out: CST MIC", "result": 1, "unit": "µg/mL"}, {"measurement": "MIC", "setting": "[8]; EC310, read-out: CST MIC", "result": 1, "unit": "µg/mL"}, {"measurement": "MIC", "setting": "[9]; 70122CW2007, read-out: CST MIC", "result": 1, "unit": "µg/mL"}, {"measurement": "MIC", "setting": "[10]; 95882CW2011, read-out: CST MIC", "result": 0.5, "unit": "µg/mL"}, {"measurement": "MIC", "setting": "[11]; EC305, read-out: CST MIC", "result": 0.5, "unit": "µg/mL"}, {"measurement": "MIC", "setting": "[12]; EC309, read-out: CST MIC", "result": 1, "unit": "µg/mL"}, {"measurement": "MIC", "setting": "[13]; EC302, read-out: CST MIC", "result": 0.5, "unit": "µg/mL"}, {"measurement": "MIC", "setting": "[14]; ATCC35218, read-out: CST MIC", "result": 2, "unit": "µg/mL"}, {"measurement": "MIC", "setting": "[15]; EC308, read-out: CST MIC", "result": 0.5, "unit": "µg/mL"}, {"measurement": "MIC", "setting": "[16]; ATCC25922, read-out: CST MIC", "result": 1, "unit": "µg/mL"}]}, {"smiles": "C[C@@H](O)[C@H]1C(=O)N2C(C(=O)O)=C(S[C@@H]3CN[C@H](C(=O)N(C)C)C3)[C@H](C)[C@H]12", "note": "[MEM, meropenem]", "values": [{"measurement": "MIC", "setting": "[7]; ATCCBAA2471, read-out: MEM MIC", "result": "> 32", "unit": "µg/mL"}, {"measurement": "MIC", "setting": "[8]; EC310, read-out: MEM MIC", "result": 0.06, "unit": "µg/mL"}, {"measurement": "MIC", "setting": "[9]; 70122CW2007, read-out: MEM MIC", "result": 0.06, "unit": "µg/mL"}, {"measurement": "MIC", "setting": "[10]; 95882CW2011, read-out: MEM MIC", "result": 4, "unit": "µg/mL"}, {"measurement": "MIC", "setting": "[11]; EC305, read-out: MEM MIC", "result": 0.06, "unit": "µg/mL"}, {"measurement": "MIC", "setting": "[12]; EC309, read-out: MEM MIC", "result": 0.06, "unit": "µg/mL"}, {"measurement": "MIC", "setting": "[13]; EC302, read-out: MEM MIC", "result": 0.06, "unit": "µg/mL"}, {"measurement": "MIC", "setting": "[14]; ATCC35218, read-out: MEM MIC", "result": 0.06, "unit": "µg/mL"}, {"measurement": "MIC", "setting": "[15]; EC308, read-out: MEM MIC", "result": 0.06, "unit": "µg/mL"}, {"measurement": "MIC", "setting": "[16]; ATCC25922, read-out: MEM MIC", "result": 0.06, "unit": "µg/mL"}]}, {"smiles": "O=C1CN(/N=C/c2ccc([N+](=O)[O-])o2)C(=O)N1", "note": "[NIT, nitrofurantoin]", "values": [{"measurement": "MIC", "setting": "[7]; ATCCBAA2471, read-out: NIT MIC", "result": 32, "unit": "µg/mL"}, {"measurement": "MIC", "setting": "[8]; EC310, read-out: NIT MIC", "result": 8, "unit": "µg/mL"}, {"measurement": "MIC", "setting": "[9]; 70122CW2007, read-out: NIT MIC", "result": 32, "unit": "µg/mL"}, {"measurement": "MIC", "setting": "[10]; 95882CW2011, read-out: NIT MIC", "result": 8, "unit": "µg/mL"}, {"measurement": "MIC", "setting": "[11]; EC305, read-out: NIT MIC", "result": 8, "unit": "µg/mL"}, {"measurement": "MIC", "setting": "[12]; EC309, read-out: NIT MIC", "result": 16, "unit": "µg/mL"}, {"measurement": "MIC", "setting": "[13]; EC302, read-out: NIT MIC", "result": 16, "unit": "µg/mL"}, {"measurement": "MIC", "setting": "[14]; ATCC35218, read-out: NIT MIC", "result": 0.25, "unit": "µg/mL"}, {"measurement": "MIC", "setting": "[15]; EC308, read-out: NIT MIC", "result": 8, "unit": "µg/mL"}, {"measurement": "MIC", "setting": "[16]; ATCC25922, read-out: NIT MIC", "result": 8, "unit": "µg/mL"}]}, {"smiles": "CN(C)[C@@H]1C(O)=C(C(N)=O)C(=O)[C@@]2(O)C(O)=C3C(=O)c4c(O)cccc4[C@@](C)(O)[C@H]3C[C@@H]12", "note": "[TET, tetracycline]", "values": [{"measurement": "MIC", "setting": "[7]; ATCCBAA2471, read-out: TET MIC", "result": 128, "unit": "µg/mL"}, {"measurement": "MIC", "setting": "[8]; EC310, read-out: TET MIC", "result": 2, "unit": "µg/mL"}, {"measurement": "MIC", "setting": "[10]; 95882CW2011, read-out: TET MIC", "result": 1, "unit": "µg/mL"}, {"measurement": "MIC", "setting": "[11]; EC305, read-out: TET MIC", "result": "> 128", "unit": "µg/mL"}, {"measurement": "MIC", "setting": "[12]; EC309, read-out: TET MIC", "result": 2, "unit": "µg/mL"}, {"measurement": "MIC", "setting": "[13]; EC302, read-out: TET MIC", "result": 2, "unit": "µg/mL"}, {"measurement": "MIC", "setting": "[14]; ATCC35218, read-out: TET MIC", "result": 0.25, "unit": "µg/mL"}, {"measurement": "MIC", "setting": "[15]; EC308, read-out: TET MIC", "result": 128, "unit": "µg/mL"}, {"measurement": "MIC", "setting": "[16]; ATCC25922, read-out: TET MIC", "result": 1, "unit": "µg/mL"}]}]}
